According to patent US20240368668A1, “SUBSTRATES AND BIOMARKERS OF ADAMTS7” (The Broad Institute, Inc., priority 2021, published 2024):

System: mouse ADAMTS7
Experiment: TMT10 TAILS N-terminomics, HUVEC experiment (process replicates, trypsin/AspN digest)
Type: cell-based, human
Conditions: HUVEC TAILS HC; log fold change of N-terminal peptide, Ad-mADAMTS7 WT over EQ
Outline: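 Full-length mouse ADAMTS7 (WT or E373Q mutant, C-terminal 3xFLAG) or luciferase was transduced via adenovirus, 50 MOI, into HCA-SMC (SMC1, SMC2) or HUVEC. SMC1: pooled media, technical triplicates 400 ug; SMC2: process triplicates 300 ug; HUVEC: process triplicates 200 ug, bFGF2 10 ng/ml.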

Row | Substance | logFC.mWT.over.mEQ
1 | COL18A1_1505 (LQPPVVQLHDSNPYPR; listed as Homo sapiens) | 3.88
2 | LTBP2_79 (VAGLQPVER; listed as Homo sapiens) | 1.51
3 | LTBP2_250 (SAAGEGTLAR; listed as Homo sapiens) | 1.71
4 | LTBP2_502 (LVENSVETRPPPWLPASPGHSLW; listed as Homo sapiens) | 2.68
5 | LTBP3_208 (FLVPLGPGQISA; listed as Homo sapiens) | 2.14
6 | MAP4_815 (AVASTGPSSR; listed as Homo sapiens) | 2.51
7 | MAP4_816 (VASTGPSSR; listed as Homo sapiens) | 2.05
8 | NID1_360 (FHQQHPQVI; listed as Homo sapiens) | 1.78
9 | NID2_291 (HSSVPLGR; listed as Homo sapiens) | 2.90
10 | NUCB1_317 (FLASTQR; listed as Homo sapiens) | 2.65
11 | NUCB1_389 (LQQAVLHMEQR; listed as Homo sapiens) | 1.54
12 | SERBP1_56 (QAAAQTNSNAAGKQLR; listed as Homo sapiens) | 1.43
13 | SPOCK1_27 (LAGGAGPNHGNFL; listed as Homo sapiens) | 1.07
14 | SRGN_59 (LLPGESNKIPR; listed as Homo sapiens) | 1.17
15 | THBS2_290 (LSENLKR; listed as Homo sapiens) | 4.41
